Calls of active or inactive are those of the source. The calls are words filed in the database; no cut-off is given here.
How the values were obtained:
MOLT-4 = test: Antiproliferative activity against human MOLT-4 cells after 48 hrs by CCK-8 assay; format: functional, cell-based; settings: MOLT-4, 48 h
HeLa = test: Antiproliferative activity against human HeLa cells after 48 hrs by CCK-8 assay; format: functional, cell-based
MC-38 [1] = test: Antitumor activity against mouse MC38 cells xenografted in C57BL/6 mouse assessed as decrease in Ac-HH3 expression in tumor at 50 to 100 mg/kg, ip administered every 2 days for 16 consecutive days measured by immunohistochemistry analysis; format: functional, organism-based; settings: dose 50-100 mg/kg, time 16.0 day
HepG2 = test: Antiproliferative activity against human HepG2 cells after 48 hrs by CCK-8 assay; format: functional, cell-based; settings: HepG2, 48 h
MC-38 [2] = test: Antitumor activity against mouse MC38 cells xenografted in C57BL/6 mouse assessed as tumor growth inhibition at 100 mg/kg, ip administered every 2 days for 16 consecutive days; format: functional; settings: MC-38, 384 h, time 16 day, read-out: TGI
[3] = target: T1, Protein deacetylase HDAC6 (Homo sapiens, UniProt Q9UBN7); test: Inhibition of HDAC6 in human HeLa cell nuclear extract using Boc-Lys(Ac)-AMC or Boc-Lys(triflouroacetyl)-AMC as substrate incubated for 30 mins and measured by fluorescence assay; format: cell-free
T1 sequence (Q9UBN7 whole entry): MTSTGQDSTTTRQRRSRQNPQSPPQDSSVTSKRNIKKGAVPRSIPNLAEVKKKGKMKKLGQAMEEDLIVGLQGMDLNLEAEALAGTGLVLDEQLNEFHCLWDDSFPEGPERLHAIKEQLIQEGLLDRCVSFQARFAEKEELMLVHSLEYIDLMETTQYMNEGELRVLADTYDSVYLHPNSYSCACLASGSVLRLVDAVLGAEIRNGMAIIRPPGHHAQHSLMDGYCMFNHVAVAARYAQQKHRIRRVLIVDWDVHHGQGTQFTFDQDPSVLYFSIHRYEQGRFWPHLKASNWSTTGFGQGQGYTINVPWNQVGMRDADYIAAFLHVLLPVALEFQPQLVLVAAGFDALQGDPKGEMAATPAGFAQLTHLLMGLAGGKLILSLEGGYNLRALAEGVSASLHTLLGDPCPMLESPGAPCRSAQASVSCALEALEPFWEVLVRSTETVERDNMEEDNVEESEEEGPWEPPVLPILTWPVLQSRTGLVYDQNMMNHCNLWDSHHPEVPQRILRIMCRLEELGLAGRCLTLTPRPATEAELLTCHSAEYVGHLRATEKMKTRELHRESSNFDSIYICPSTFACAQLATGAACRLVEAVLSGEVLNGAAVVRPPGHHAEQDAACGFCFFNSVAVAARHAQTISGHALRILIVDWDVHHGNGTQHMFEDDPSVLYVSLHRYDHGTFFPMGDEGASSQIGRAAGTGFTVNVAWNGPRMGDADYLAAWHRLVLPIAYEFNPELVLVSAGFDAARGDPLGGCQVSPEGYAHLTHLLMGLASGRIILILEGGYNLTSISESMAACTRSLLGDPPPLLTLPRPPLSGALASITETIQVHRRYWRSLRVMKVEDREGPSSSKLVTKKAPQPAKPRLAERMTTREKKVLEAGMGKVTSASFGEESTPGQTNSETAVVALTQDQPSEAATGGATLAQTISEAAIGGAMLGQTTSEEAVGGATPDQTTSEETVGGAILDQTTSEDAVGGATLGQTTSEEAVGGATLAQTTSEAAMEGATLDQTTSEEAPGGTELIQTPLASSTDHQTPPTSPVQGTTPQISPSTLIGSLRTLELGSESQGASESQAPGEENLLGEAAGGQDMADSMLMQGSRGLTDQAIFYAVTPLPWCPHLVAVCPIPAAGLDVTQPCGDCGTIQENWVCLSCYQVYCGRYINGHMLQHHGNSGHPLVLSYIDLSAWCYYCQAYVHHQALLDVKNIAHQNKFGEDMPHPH

MC38 = test: Inhibition of HDAC in mouse MC-38 cells assessed as increase in acetylated HH3 expression expression at 0.17 to 1.5 uM incubated for 48 hrs by Western blot analysis; format: cell-based; settings: dose 0.17-1.5 µM
Histone deacetylase 1 = Histone deacetylase 1 (Homo sapiens, UniProt Q13547); test: Inhibition of HDAC1 in human HeLa cell nuclear extract using Boc-Lys(Ac)-AMC or Boc-Lys(triflouroacetyl)-AMC as substrate incubated for 30 mins and measured by fluorescence assay; format: cell-free
Sequence of Histone deacetylase 1 (Q13547 whole entry): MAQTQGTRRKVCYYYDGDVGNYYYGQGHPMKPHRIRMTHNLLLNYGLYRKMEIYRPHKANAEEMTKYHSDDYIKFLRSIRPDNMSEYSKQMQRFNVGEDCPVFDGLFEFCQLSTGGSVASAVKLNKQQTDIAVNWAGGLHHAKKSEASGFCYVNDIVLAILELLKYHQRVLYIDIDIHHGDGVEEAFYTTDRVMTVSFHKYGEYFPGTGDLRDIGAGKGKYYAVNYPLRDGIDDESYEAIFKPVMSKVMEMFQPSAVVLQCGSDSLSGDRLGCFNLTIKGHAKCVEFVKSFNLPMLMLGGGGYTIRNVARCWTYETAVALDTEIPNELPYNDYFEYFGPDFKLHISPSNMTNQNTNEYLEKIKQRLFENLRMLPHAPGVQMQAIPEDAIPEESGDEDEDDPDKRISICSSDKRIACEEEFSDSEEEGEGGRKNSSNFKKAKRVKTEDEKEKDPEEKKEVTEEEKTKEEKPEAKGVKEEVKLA

HCT-116 = test: Downregulation of SSRP-1 expression in human HCT-116 cells at 0.17 to 1.5 uM measured after 24 hrs by Western blot analysis; format: functional, cell-based; settings: dose 0.17-1.5 µM
Calf thymus DNA = test: Binding affinity to calf thymus DNA at 50 uM incubated for 30 mins and measured by UV-vis absorption spectroscopy; format: nucleic-acid assay; settings: Bos taurus

IC50 (MOLT-4): 150 nM
IC50 (HeLa): 780 nM
IC50 (HepG2): 1400 nM
IC50 [3]: 20 nM
IC50 (Histone deacetylase 1): 15 nM
Activity (Calf thymus DNA): Active
SMILES: O=C(CCCCCOc1cccc(-c2nnc(-c3ccccc3)s2)c1)NO
Activity (MC-38 [1]): Active
inhibition in vivo at 100 mg/kg (MC-38 [2]): 85.2%
inhibition (MC38): Active
Activity (HCT-116): Active
